{"source": "patent US20200246284A1", "about": "(Academia Sinica, priority 2015, published 2020)", "key": {"OP9 calvarial stroma": {"tested_on": "OP9 calvarial stroma", "experiment": "Cytotoxicity normal tissue 72 hr", "format": "cell-based", "settings": "OP9 (mouse)"}, "MA-10-W51": {"tested_on": "MA-10-W51", "experiment": "Cytotoxicity leukemia", "format": "cell-based, human", "settings": "growth factor dependent MA-10-W51", "description": "Human cord blood CD34+ cells transduced with MLL-AF9 gene: MA-10, MA-18. Human bone marrow CD34+ cells transduced with MLL-AF9 gene: MA-23. Human cord blood CD34+ cells transduced with MLL-AF9 and N-ras genes: MA-9.3, […] )."}, "[1]": {"experiment": "Pharmacokinetics, single IV 1 mg/kg or oral 10 mg/kg", "format": "in vivo, Sprague Dawley rats", "settings": "for oral absorption: 10 mg/kg", "experimental": "A single intravenous dose was administered via an indwelling catheter in the jugular vein to a group of 2 male rats at a dose level of 1.0 mg/kg. The formulations were prepared as a solution in 5.0% w/v DMSO with 10% w/v Cremophor in distilled water. […] The formulations were prepared as a solution in 0.5% w/v CMC in distilled water. Serial blood samples were collected from the jugular vein catheter up to 24 h post-dose from all animals in groups."}, "Caco-2 permeability": {"experiment": "Caco-2 permeability", "format": "in vitro ADME, human", "settings": "human, Caco-2, 10 μM", "description": "The Caco-2 permeability assay is considered to be the industry gold standard for in vitro prediction of in vivo human intestinal permeability and bioavailability of orally administered drugs. The Caco-2 permeability assay uses an established method for predicting the absorption of therapeutic compounds across the GIT by measuring the rate of transport across a contiguous Caco-2 cell monolayer. […] The Caco-2 assay measures the passage of a test compound from a donor chamber into an acceptor chamber through a porous membrane on which a confluent Caco-2 monolayer forms a cellular barrier."}, "[2]": {"tested_on": "AML-2 CD34+ cells in NSG mice", "experiment": "Primary MLL-AF9+ pediatric AML (AML-2) xenograft", "format": "in vivo, mouse", "settings": "30 mg/kg Q10D2x from day 7"}, "[3]": {"tested_on": "primary Pre-B-ALL cells in NSG mice", "experiment": "Primary pre-B-ALL xenograft", "format": "in vivo, mouse", "settings": "Q10D2x from day 7"}, "H526 xenografts": {"tested_on": "H526 xenografts", "experiment": "SCLC H526 xenograft in NSG mice", "format": "in vivo, mouse", "settings": "30 mg/kg i.v. every second day; d30", "description": "Xenografts of GFP/Luciferase-labeled H526 were established in groups of ten NSG male mice aged 12 wks by subcutaneous injection of 50,000 tumor cells."}, "H526 xenograft": {"tested_on": "H526 xenograft", "experiment": "SCLC H526 xenograft in nude mice", "format": "in vivo, mouse", "settings": "40 mg/kg i.v."}, "Z-138": {"tested_on": "Z-138", "experiment": "Combination with BO-1055, MCL (Tables 28, 29)", "format": "cell-based, human", "settings": "read-out: IC50 single drug"}, "NECB1": {"tested_on": "NECB1", "experiment": "Combination with BO-1055, MCL (Tables 28, 29)", "format": "cell-based, human", "settings": "read-out: IC50 single drug"}, "Ly3 (OCI-LY3)": {"tested_on": "Ly3 (OCI-LY3)", "settings": "human"}, "Pfeiffer": {"tested_on": "Pfeiffer", "settings": "human"}, "U2932": {"tested_on": "U2932", "settings": "human"}, "Ly19": {"tested_on": "Ly19", "experiment": "cells", "settings": "Homo sapiens, read-out: cytotoxicity IC50"}, "Farage": {"tested_on": "Farage", "experiment": "cells", "settings": "Homo sapiens, read-out: cytotoxicity IC50"}, "hERG": {"target": "hERG (Homo sapiens, UniProt Q12809)", "sequence (Q12809 whole entry)": "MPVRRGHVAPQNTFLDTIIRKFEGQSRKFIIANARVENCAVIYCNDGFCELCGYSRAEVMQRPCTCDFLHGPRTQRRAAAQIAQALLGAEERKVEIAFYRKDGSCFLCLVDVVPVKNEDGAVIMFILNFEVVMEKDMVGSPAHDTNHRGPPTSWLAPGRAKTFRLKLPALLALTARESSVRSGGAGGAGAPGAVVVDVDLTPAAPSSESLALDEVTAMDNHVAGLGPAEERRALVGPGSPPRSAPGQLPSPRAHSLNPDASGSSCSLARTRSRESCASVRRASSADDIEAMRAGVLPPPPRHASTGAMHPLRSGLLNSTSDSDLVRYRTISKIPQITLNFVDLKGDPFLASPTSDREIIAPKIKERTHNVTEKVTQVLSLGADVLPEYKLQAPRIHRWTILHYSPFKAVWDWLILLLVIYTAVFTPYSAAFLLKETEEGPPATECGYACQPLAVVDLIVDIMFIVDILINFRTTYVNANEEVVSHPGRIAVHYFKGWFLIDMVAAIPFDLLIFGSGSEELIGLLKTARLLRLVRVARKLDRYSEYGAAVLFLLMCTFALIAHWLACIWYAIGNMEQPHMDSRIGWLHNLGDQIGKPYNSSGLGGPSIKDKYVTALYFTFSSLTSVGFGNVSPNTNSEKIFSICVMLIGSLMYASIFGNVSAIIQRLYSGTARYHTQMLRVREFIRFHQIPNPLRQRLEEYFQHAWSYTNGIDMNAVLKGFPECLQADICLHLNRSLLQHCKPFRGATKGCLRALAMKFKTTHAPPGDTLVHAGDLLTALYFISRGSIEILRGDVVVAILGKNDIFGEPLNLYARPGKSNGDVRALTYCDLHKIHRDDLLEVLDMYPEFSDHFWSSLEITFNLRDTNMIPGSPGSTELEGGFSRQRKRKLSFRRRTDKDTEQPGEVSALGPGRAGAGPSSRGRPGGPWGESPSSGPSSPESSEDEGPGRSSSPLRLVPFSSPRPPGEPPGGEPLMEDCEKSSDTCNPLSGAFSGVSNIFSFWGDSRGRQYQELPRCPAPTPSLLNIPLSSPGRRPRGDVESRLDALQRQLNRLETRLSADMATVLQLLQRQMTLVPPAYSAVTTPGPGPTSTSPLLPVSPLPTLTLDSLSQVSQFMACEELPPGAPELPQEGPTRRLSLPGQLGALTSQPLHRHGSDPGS", "experiment": "in vitro"}, "A204 rhabdomyosarcoma": {"tested_on": "A204 rhabdomyosarcoma", "experiment": "Cytotoxicity sarcoma", "settings": "read-out: cytotoxic activity (IC50), A204 (rhabdoid?)"}, "SUDHL-5": {"tested_on": "SUDHL-5", "experiment": "Cytotoxicity DLBCL", "settings": "read-out: cytotoxicity IC50; SUDHL-5, DLBCL GCB"}, "JEKO-1": {"tested_on": "JEKO-1", "experiment": "Cytotoxicity mantle cell lymphoma"}, "NOSE ovarian epithelium": {"tested_on": "NOSE ovarian epithelium", "format": "cell-based, human"}, "CALU-6": {"tested_on": "CALU-6", "format": "cell-based, human"}, "H1975": {"tested_on": "H1975", "format": "cell-based, human"}, "H3122": {"tested_on": "H3122", "format": "cell-based, human"}, "MOR": {"tested_on": "MOR", "experiment": "Cytotoxicity NSCLC", "format": "cell-based, human"}, "SK-LU-1": {"tested_on": "SK-LU-1", "format": "cell-based, human"}, "H596": {"tested_on": "H596", "format": "cell-based, human"}, "H1703": {"tested_on": "H1703", "format": "cell-based, human"}, "H226": {"tested_on": "H226", "format": "cell-based, human"}, "HCC15": {"tested_on": "HCC15", "format": "cell-based, human"}, "HCC2450": {"tested_on": "HCC2450", "format": "cell-based, human"}, "PC1 (jap)": {"tested_on": "PC1 (jap)", "format": "cell-based, human"}, "SK-MES-1": {"tested_on": "SK-MES-1", "format": "cell-based, human"}, "H128": {"tested_on": "H128", "experiment": "Cytotoxicity SCLC 72 hr alamar blue", "format": "cell-based, human"}, "H211": {"tested_on": "H211", "experiment": "Cytotoxicity SCLC 72 hr alamar blue", "format": "cell-based, human"}, "H678": {"tested_on": "H678", "experiment": "Cytotoxicity SCLC 72 hr alamar blue", "format": "cell-based, human"}}, "note": "Values joined by “and” are separate entries in the source; they are usually repeats but may differ in a detail not shown here. Equal values may be shown once.", "data": [{"smiles": "CN(C)CCNC(=O)c1cccc(NC(=O)Nc2ccc(N(CCCl)CCCl)cc2)c1", "note": "[BO-1055, Ureidomustine]", "values": [{"measurement": "IC50", "setting": "OP9 calvarial stroma", "value": "≥ 10", "unit": "µM"}, {"measurement": "cytotoxicity, dose titration (FIG. 9)", "setting": "MA-10-W51", "value": "highly cytotoxic"}, {"measurement": "AUC (0-last)", "setting": "[1]; IV 1 mg/kg, rat", "value": 925.81, "unit": "ng·h/mL"}, {"measurement": "AUC (0-∞)", "setting": "[1]; IV 1 mg/kg, rat", "value": 934.93, "unit": "ng·h/mL"}, {"measurement": "CLss", "setting": "[1]; IV 1 mg/kg, rat", "value": 18.00, "unit": "mL/min/kg"}, {"measurement": "Vss", "setting": "[1]; IV 1 mg/kg, rat", "value": 0.15, "unit": "L/kg"}, {"measurement": "t1/2", "setting": "[1]; IV 1 mg/kg, rat", "value": 34.8, "unit": "min"}, {"measurement": "C0", "setting": "[1]; male, Sprague Dawley, plasma, IV 1 mg/kg, rat", "value": 12000, "unit": "ng/mL"}, {"measurement": "plasma levels after oral administration", "setting": "[1]; oral 10 mg/kg, LLOQ […]", "value": "No quantifiable levels"}, {"measurement": "oral absorption", "setting": "[1]; oral 10 mg/kg, rat", "value": "no oral absorption"}, {"measurement": "oral absorption", "setting": "[1]; oral 10 mg/kg, rat, listed as ureidomustine", "value": "No Oral Absorption"}, {"measurement": "Papp B→A at 10 μM", "setting": "Caco-2 permeability", "value": 7.05, "unit": "×10⁻⁶ cm/s"}, {"measurement": "survival longer than control", "setting": "[2]", "value": 48, "unit": "days"}, {"measurement": "reduction of tumor growth", "setting": "[3]", "value": 2, "unit": "log"}, {"measurement": "survival longer than control", "setting": "[3]", "value": "~100", "unit": "days"}, {"measurement": "tumor-free mice", "setting": "H526 xenografts", "value": "3/5"}, {"measurement": "complete remission (CR)", "setting": "H526 xenograft; 28 d", "value": "3/4"}, {"measurement": "complete remission (CR)", "setting": "H526 xenograft; 32 d", "value": "2/4"}, {"measurement": "complete remission (CR)", "setting": "H526 xenograft; 77 d", "value": "1/4"}, {"measurement": "IC50", "setting": "Z-138", "value": "299 nM and 303 nM and 301 nM"}, {"measurement": "IC50", "setting": "NECB1", "value": "7.42 µM and 7.78 µM and 8.52 µM"}, {"measurement": "IC50", "setting": "Ly3 (OCI-LY3)", "value": 3.5, "unit": "µM"}, {"measurement": "IC50", "setting": "Pfeiffer", "value": 3.87, "unit": "µM"}, {"measurement": "IC50", "setting": "U2932", "value": 2220, "unit": "nM"}, {"measurement": "IC50", "setting": "Ly19", "value": 290, "unit": "nM"}, {"measurement": "IC50", "setting": "Farage", "value": 440, "unit": "nM"}, {"measurement": "IC50", "setting": "hERG", "value": "12.6 ± 1.64", "unit": "µM"}, {"measurement": "IC50", "setting": "A204 rhabdomyosarcoma", "value": 80, "unit": "nM"}, {"measurement": "IC50", "setting": "SUDHL-5", "value": 4.14, "unit": "µM"}, {"measurement": "IC50", "setting": "JEKO-1", "value": 270, "unit": "nM"}]}, {"smiles": "N.N.[Cl][Pt][Cl]", "note": "[Cisplatin]", "values": [{"measurement": "IC50", "setting": "NOSE ovarian epithelium", "value": "≥ 25", "unit": "µM"}, {"measurement": "IC50", "setting": "CALU-6", "value": 3.25, "unit": "µM"}, {"measurement": "IC50", "setting": "H1975", "value": "≥ 10", "unit": "µM"}, {"measurement": "IC50", "setting": "H3122", "value": "≥ 30", "unit": "µM"}, {"measurement": "IC50", "setting": "MOR", "value": 3.9, "unit": "µM"}, {"measurement": "IC50", "setting": "SK-LU-1", "value": 6.94, "unit": "µM"}, {"measurement": "IC50", "setting": "H596", "value": "≥ 10", "unit": "µM"}, {"measurement": "IC50", "setting": "H1703", "value": "≥ 20", "unit": "µM"}, {"measurement": "IC50", "setting": "H226", "value": 2900, "unit": "nM"}, {"measurement": "IC50", "setting": "HCC15", "value": "≥ 85", "unit": "µM"}, {"measurement": "IC50", "setting": "HCC2450", "value": "≥ 80", "unit": "µM"}, {"measurement": "IC50", "setting": "PC1 (jap)", "value": "≥ 20", "unit": "µM"}, {"measurement": "IC50", "setting": "SK-MES-1", "value": "≥ 50", "unit": "µM"}, {"measurement": "IC50", "setting": "H128", "value": 4.79, "unit": "µM"}, {"measurement": "IC50", "setting": "H211", "value": 1210, "unit": "nM"}, {"measurement": "IC50", "setting": "H678", "value": 3.81, "unit": "µM"}]}]}
